Data taken from patent US20260258025A1, “INHIBITORS OF TDP-43 AND TAU AGGREGATION” (Aquinnah Pharmaceuticals, inc., priority 2023, published 2026).
pIC50: −log10 of the molar value.

Legend:
[1] = tested on: tau stress granules; assay: SY5Y-tT1 tau arsenite assay (tau stress granules per cell); type: cell-based; conditions: SY5Y-tT1 cells, 2 hours compound, 90 minutes arsenite, 50% reduction of granules per cell, read-out: IC50, Inhibitor Activity of Tau Stress Granules
Experimental: Example 91: In Vitro Efficacy Assay of Exemplary Compounds—SY5Y-tT1 Tau Arsenite/Thapsigargin Assay
• Before harvesting cells—checked to see if cells are ~80% confluency in their flask • 1. Aspirated growth media from flask. • 2. Added 4 mL of (0.25%) trypsin-EDTA (REF: 25200-056) • 3. Placed in 37° C. incubator for 5 minutes. • 4. Removed from incubator and added 11 mL growth media, washing any remaining cells adhered to the bottom of the flask. • 5. Transferred cell containing media to a 50 mL conical tube and spun for 5 minutes at 800 rpm. • 6. Aspirated supernatant and added 5 mL of growth media to cell pellet, triturating to make a homogenous cell solution. • 7. After counting cells, followed one of these plating paradigms: • (A) If treating with arsenite, plated cells at […] with tetracycline solution (5 mg/mL) added to cell solution at 1:5000 • (B) If treating with thapsigargin, plated cells at 4,000 cells/well with tetracycline solution (5 mg/mL) added to cell solution at 1:5000 • 8. Incubated at 37° C. for 48 hours.
• Solubilized all compounds to 10 mM prior to making dilution plates • 1. To a 96-well U-bottom plate (Falcon Non-Tissue Culture Treated Plates REF: 351177) added 120 μL growth media to all 96 wells, with an additional 58.2 μL to row A. • 2. Added 1.8 μL of 10 mM compound stock to wells A1-11, adding 1.8 μL of 10 mM PERKi stock (Selleck Chemistry GSK2606414 Cat No. S7307) as the control. • 3. Serially diluted 60 μL from row A down through each row, finishing with 180 μL total volume in row H. • 4. Transferred 12.5 μL of each dilution plate well to the correlating wells in cell plate, being careful not to touch cells adhered to bottom of the plate. • 5. Incubated for 2 hours.
• 1. Added 720 μL of 0.05 M sodium arsenite solution (CAS #: 7784-46-5) to 10 mL of growth media for a final concentration of […] arsenite solution, mix well. • 2. Added 12.5 μL of arsenite solution to all wells of compounds treated plate intended for arsenite treatment. • 3. Incubated at 37° C. for 90 minutes.
• Before beginning this part of the protocol: • Made 1×PBS by diluting 10× stock (10×, Phosphate buffered saline, Fisher #BP399— • 4) in sterile deionized water. • Diluted paraformaldehyde (16% Paraformaldehyde solution, Electron Microscopy Sciences #15710-S) to 4% in 1×PBS. • Diluted Hoechst stain (Life Technologies #H3570) 1:10,000 in 1×PBS (1 μL Hoechst per 10 mL 1×PBS). • Both solutions were protected from light. • 1) After compound treatment, aspirated media from cell plates and gently added in 50 μL of 4% paraformaldehyde for 10 min protected from light at room temperature. • 2) Aspirated paraformaldehyde solution and gently added 50 μL of 1:10,000 Hoechst solution to each well and incubated for 10 min protected from light at room temperature. • 3) Aspirated Hoechst solution and gently added 100 μL 1×PBS. Cover the plate with aluminum film (VWR #60941-126). • 4) Stored at 4° C. or used immediately for imaging on ThermoFisher CX7 imager.
Exemplary compounds of the disclosed herein were evaluated for efficacy for inhibitor activity of tau stress granules in the arsenite assay and quantified as drug concentration providing a 50% reduction (IC50) of granules per cell is shown in Table 4.
In Table 4 below, A indicates an IC50 (μM)<0.5 μM, B indicates an IC50 (μM) 0.5 μM to <1 μM, C indicates an IC50 (μM) 1 μM to <2 μM, and D indicates an IC50 (μM) 2 μM to <6 μM.

[2] = tested on: TDP-43 aggregation; assay: TDP-43 aggregation assay in SY5Y TDP-43WT cells (high content imaging); type: cell-based; conditions: Homo sapiens, tetracycline induction 24 hrs, 1 hour compound pre-treatment, sodium arsenite 23 hrs, 8-point dose curve, percentage of cells with TDP-43 aggregates, read-out: IC50, Inhibition of TDP-43 Aggregation
Procedure, shortened: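 Tetracycline-inducible eGFP-tagged wild-type human TDP-43 in SH-SY5Y cells, induced 24 h ([…]), compound pre-treated 1 h, then sodium arsenite […] for 23 h. Fixed cells imaged; percentage of DAPI-counted cells with aggregates gives IC50 from 8-point curves.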

SMILES	pIC50 [1]	pIC50 [2]
COCCCN1CCC(c2ccc(-c3cc(C)c(C(=O)N4CC[C@H](N)C4)s3)cc2)CC1 [Compound 141, (S)-(3-aminopyrrolidin-1-yl)(5-(4-(1-(3-methoxypropyl)piperidin-4-yl)phenyl)-3-methylthiophen-2-yl)methanone]	6.00 to 6.30	> 6.30
CCN1CCN(c2ccc(-c3cc(C)c(C(=O)N4CC[C@H](N)C4)s3)cc2)CC1 [Compound 155, (S)-(3-aminopyrrolidin-1-yl)(5-(4-(4-ethylpiperazin-1-yl)phenyl)-3-methylthiophen-2-yl)methanone]	6.00 to 6.30	> 6.30
Cc1cc(-c2ccc(C3CCN(C)CC3)c(F)c2)sc1C(=O)N1CC[C@H](N)C1 [Compound 136, (S)-(3-aminopyrrolidin-1-yl)(5-(3-fluoro-4-(1-methylpiperidin-4-yl)phenyl)-3-methylthiophen-2-yl)methanone]	> 6.30	> 6.30
CCN1CCC(c2ccc(-c3cc(C)c(C(=O)N4CC[C@H](N)C4)s3)cc2)CC1 [Compound 176, (S)-(3-aminopyrrolidin-1-yl)(5-(4-(1-ethylpiperidin-4-yl)phenyl)-3-methylthiophen-2-yl)methanone]	6.00 to 6.30	> 6.30
Cc1cc(-c2ccc(C3CCN(CC4CCCOC4)CC3)cc2)sc1C(=O)N1CC[C@H](N)C1 (stereo partly drawn) [Compound 139, ((S)-3-aminopyrrolidin-1-yl)(3-methyl-5-(4-(1-((tetrahydro-2H-pyran-3-yl)methyl)piperidin-4-yl)phenyl)thiophen-2-yl)methanone]	6.00 to 6.30	> 6.30
Cc1cc(-c2ccc(N3CCN(C4CCCCC4)CC3)cc2)sc1C(=O)N1CC[C@H](N)C1 [Compound 148, (S)-(3-aminopyrrolidin-1-yl)(5-(4-(4-cyclohexylpiperazin-1-yl)phenyl)-3-methylthiophen-2-yl)methanone]	5.70 to 6.00	
C=CCc1cc(-c2ccc(C3CCN(C(C)C)CC3)cc2)sc1C(=O)N1CC[C@H](N)C1 [Compound 109, (S)-(3-allyl-5-(4-(1-isopropylpiperidin-4-yl)phenyl)thiophen-2-yl)(3-aminopyrrolidin-1-yl)methanone]	> 6.30	
COCCN1CCC(c2ccc(-c3cc(C)c(C(=O)N4CC[C@H](N)C4)s3)cc2)CC1 [Compound 142, (S)-(3-aminopyrrolidin-1-yl)(5-(4-(1-(2-methoxyethyl)piperidin-4-yl)phenyl)-3-methylthiophen-2-yl)methanone]	6.00 to 6.30	> 6.30
Cc1cc(-c2ccc(C3CCN(C4CCS(=O)(=O)CC4)CC3)cc2)sc1C(=O)N1CC[C@H](N)C1 [Compound 156, (S)-(3-aminopyrrolidin-1-yl)(5-(4-(1-(1,1-dioxidotetrahydro-2H-thiopyran-4-yl)piperidin-4-yl)phenyl)-3-methylthiophen-2-yl)methanone]	> 6.30	> 6.30
CCc1cc(-c2ccc(C3CCN(C(C)C)CC3)cc2)sc1C(=O)N1CC[C@H](N)C1 [Compound 118, (S)-(3-aminopyrrolidin-1-yl)(3-ethyl-5-(4-(1-isopropylpiperidin-4-yl)phenyl)thiophen-2-yl)methanone]	5.70 to 6.00	
Cc1cc(-c2ccc(N3CCN(C4CCOC4)CC3)cc2)sc1C(=O)N1CC[C@H](N)C1 (stereo partly drawn) [Compound 152, ((S)-3-aminopyrrolidin-1-yl)(3-methyl-5-(4-(4-(tetrahydrofuran-3-yl)piperazin-1-yl)phenyl)thiophen-2-yl)methanone]	5.70 to 6.00	
Cc1cc(C2CCN(C)CC2)ccc1-c1cc(C)c(C(=O)N2CC[C@H](N)C2)s1 [Compound 134, (S)-(3-aminopyrrolidin-1-yl)(3-methyl-5-(2-methyl-4-(1-methylpiperidin-4-yl)phenyl)thiophen-2-yl)methanone]	5.22 to 5.70	
Cc1cc(-c2ccc(C3CCNCC3)c(F)c2)sc1C(=O)N1CC[C@H](N)C1 [Compound 140, (S)-(3-aminopyrrolidin-1-yl)(5-(3-fluoro-4-(piperidin-4-yl)phenyl)-3-methylthiophen-2-yl)methanone]	6.00 to 6.30	
Cc1cc(-c2ccc(C3CCN(C)CC3)cc2OC(F)(F)F)sc1C(=O)N1CC[C@H](N)C1 [Compound 103, (S)-(3-aminopyrrolidin-1-yl)(3-methyl-5-(4-(1-methylpiperidin-4-yl)-2-(trifluoromethoxy)phenyl)thiophen-2-yl)methanone]	5.22 to 5.70	

Second part, the compound after the results:

pIC50 [1]	pIC50 [2]	SMILES
> 6.30	> 6.30	Cc1cc(-c2ccc(C3CCN(C4CCOCC4)CC3)cc2)sc1C(=O)N1CC[C@H](N)C1 [Compound 178, (S)-(3-aminopyrrolidin-1-yl)(3-methyl-5-(4-(1-(tetrahydro-2H-pyran-4-yl)piperidin-4-yl)phenyl)thiophen-2-yl)methanone]
6.00 to 6.30	> 6.30	Cc1cc(-c2ccc(C3CCN(C4CCC4)CC3)cc2)sc1C(=O)N1CC[C@H](N)C1 [Compound 181, (S)-(3-aminopyrrolidin-1-yl)(5-(4-(1-cyclobutylpiperidin-4-yl)phenyl)-3-methylthiophen-2-yl)methanone]
6.00 to 6.30	> 6.30	Cc1cc(-c2ccc(C3CCN(C4CCCCC4)CC3)cc2)sc1C(=O)N1CC[C@H](N)C1 [Compound 179, (S)-(3-aminopyrrolidin-1-yl)(5-(4-(1-cyclohexylpiperidin-4-yl)phenyl)-3-methylthiophen-2-yl)methanone]
5.22 to 5.70	> 6.30	Cc1cc(-c2ccc3c(c2)CCNC3)sc1C(=O)N1CC[C@H](N)C1 [Compound 199, (S)-(3-aminopyrrolidin-1-yl)(3-methyl-5-(1,2,3,4-tetrahydroisoquinolin-6-yl)thiophen-2-yl)methanone]
> 6.30	> 6.30	Cc1cc(-c2ccc(C3CCN(C4CCCC4)CC3)cc2)sc1C(=O)N1CC[C@H](N)C1 [Compound 180, (S)-(3-aminopyrrolidin-1-yl)(5-(4-(1-cyclopentylpiperidin-4-yl)phenyl)-3-methylthiophen-2-yl)methanone]
5.22 to 5.70	> 6.30	Cc1cc(-c2ccc(C(C)N(C)C)cc2)sc1C(=O)N1CC[C@H](N)C1 (stereo partly drawn) [Compound 200, ((S)-3-aminopyrrolidin-1-yl)(5-(4-(1-(dimethylamino)ethyl)phenyl)-3-methylthiophen-2-yl)methanone]
5.70 to 6.00		Cc1cc(-c2ccc(CN(C)C)cc2)sc1C(=O)N1CC[C@H](N)C1 [Compound 217, (S)-(3-aminopyrrolidin-1-yl)(5-(4-((dimethylamino)methyl)phenyl)-3-methylthiophen-2-yl)methanone]
> 6.30	> 6.30	Cc1cc(-c2ccc(C3CCN(C)CC3)cc2)sc1C(=O)N1CC[C@H](N)C1 [Compound 201, (S)-(3-aminopyrrolidin-1-yl)(3-methyl-5-(4-(1-methylpiperidin-4-yl)phenyl)thiophen-2-yl)methanone]
> 6.30	> 6.30	CCCN1CCC(c2ccc(-c3cc(C)c(C(=O)N4CC[C@H](N)C4)s3)cc2)CC1 [Compound 182, (S)-(3-aminopyrrolidin-1-yl)(3-methyl-5-(4-(1-propylpiperidin-4-yl)phenyl)thiophen-2-yl)methanone]
